We go through 18 molecules from US10246429B2, “Vinyl fluoride cyclopropyl fused thiazin-2-amine compounds as beta-secretase inhibitors and methods of use” (AMGEN INC., priority 2015, dated 2019).

Where two headings read alike, the source gives them in different places.

The target of assay [1] is T1, BACE1 (Homo sapiens (Human), UniProt P56817). The assay is described as follows: In vitro enzymatic BACE1 FRET assay. The format is biochemical.
Target sequence in this assay (P56817 46-501): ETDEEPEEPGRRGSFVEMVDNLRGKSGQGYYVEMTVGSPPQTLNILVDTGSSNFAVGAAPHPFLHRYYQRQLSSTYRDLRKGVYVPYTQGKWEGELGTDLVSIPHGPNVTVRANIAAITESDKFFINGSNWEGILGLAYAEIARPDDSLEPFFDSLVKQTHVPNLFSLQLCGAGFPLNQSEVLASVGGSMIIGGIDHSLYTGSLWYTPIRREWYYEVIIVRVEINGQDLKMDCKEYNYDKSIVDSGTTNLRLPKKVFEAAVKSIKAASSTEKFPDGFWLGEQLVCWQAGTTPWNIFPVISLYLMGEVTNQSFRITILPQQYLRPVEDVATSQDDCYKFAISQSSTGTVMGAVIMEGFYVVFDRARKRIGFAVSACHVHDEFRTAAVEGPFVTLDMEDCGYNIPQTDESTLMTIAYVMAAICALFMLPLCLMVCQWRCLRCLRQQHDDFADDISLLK
From the text: (§1) In Vitro Enzymatic BACE1 and BACE2 FRET (Fluorescence Resonance Energy Transfer) Assays (Enzyme Assay Data in Table 1)
Assay [2] addresses T1, BACE1. Description: BACE1 cell assay. The format is cell-based.
Target sequence in this assay (P56817 46-501, species assumed): as the sequence (P56817 46-501) above
The next assay deals with BACE2 (Homo sapiens (Human), UniProt Q9Y5Z0). Description: In vitro enzymatic BACE2 FRET assay. The format is biochemical.
A further assay has as its target Cathepsin D (CatD) (Homo sapiens (Human), UniProt P07339). The assay is described as follows: CatD assay. The format is biochemical. The note with it: read-out: IC50 IP (μM) CatD.
The mark [3] stands for this setting: read-out: IC50 IP (μM) BACE1 Enzyme.
The mark [4] stands for this setting: read-out: IC50 IP (μM) BACE1 Cell.
[5] abbreviates: read-out: IC50 IP (μM) BACE2 Enzyme.

Chain of BACE2 (Q9Y5Z0 63-518): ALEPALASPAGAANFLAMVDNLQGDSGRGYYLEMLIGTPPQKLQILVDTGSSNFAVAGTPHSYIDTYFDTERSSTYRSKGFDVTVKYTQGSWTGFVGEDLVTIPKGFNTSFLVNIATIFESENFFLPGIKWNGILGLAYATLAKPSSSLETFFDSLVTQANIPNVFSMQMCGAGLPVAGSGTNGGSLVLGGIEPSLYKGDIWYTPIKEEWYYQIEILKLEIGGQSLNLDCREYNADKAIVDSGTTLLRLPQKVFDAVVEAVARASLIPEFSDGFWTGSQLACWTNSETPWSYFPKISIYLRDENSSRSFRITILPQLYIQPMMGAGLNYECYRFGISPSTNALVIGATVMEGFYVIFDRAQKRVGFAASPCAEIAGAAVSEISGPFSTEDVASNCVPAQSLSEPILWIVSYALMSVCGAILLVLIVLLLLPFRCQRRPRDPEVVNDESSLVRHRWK
Chain of Cathepsin D (CatD) (P07339 65-412, species assumed): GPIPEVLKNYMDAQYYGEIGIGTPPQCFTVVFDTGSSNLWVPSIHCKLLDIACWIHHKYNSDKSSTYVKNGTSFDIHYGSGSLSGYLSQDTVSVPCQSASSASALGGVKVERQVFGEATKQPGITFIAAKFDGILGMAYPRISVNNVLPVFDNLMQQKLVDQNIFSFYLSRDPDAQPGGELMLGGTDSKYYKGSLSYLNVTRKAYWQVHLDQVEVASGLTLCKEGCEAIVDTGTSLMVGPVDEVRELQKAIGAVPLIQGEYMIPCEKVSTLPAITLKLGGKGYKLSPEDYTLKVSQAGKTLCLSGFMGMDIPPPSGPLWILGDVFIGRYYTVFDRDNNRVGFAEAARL
From the text for BACE2: as §1

As for `C[C@]1(c2cc(/C=C(\F)c3ccc(C#N)cn3)ccc2F)N=C(N)S[C@@]2(C(=O)N3CCC(F)(F)CC3)C[C@H]21` [Example 325, 6-((Z)-2-(3-((1S,5S,6S)-3-amino-1-(4,4-difluoropiperidine-1-carbonyl)-5-methyl-2-thia-4-azabicyclo[4.1.0]hept-3-en-5-yl)-4-fluorophenyl)-1-fluorovinyl)nicotinonitrile], the half-inhibitory concentration (IC50) at BACE1 [1] (setting [3]) was 0.0019 µM; on BACE1 [2] (setting [4]) it was 0.0042 µM; on BACE2 (setting [5]) it was 0.089 µM; at Cathepsin D (CatD), 446 µM.

Take `C[C@]1(c2cc(/C=C(\F)c3ccc(C#N)cn3)ccc2F)N=C(N)S[C@@]2(C(=O)N3CCC(F)CC3)C[C@H]21` [Example 326, 6-((Z)-2-(3-((1S,5S,6S)-3-amino-1-(4-fluoropiperidine-1-carbonyl)-5-methyl-2-thia-4-azabicyclo[4.1.0]hept-3-en-5-yl)-4-fluorophenyl)-1-fluorovinyl)nicotinonitrile]: the IC50 on BACE1 [1] (setting [3]) was 0.0016 µM; on BACE1 [2] (setting [4]), 0.0022 µM; at BACE2 (setting [5]), 0.045 µM; on Cathepsin D (CatD) it was 648 µM.

As to `C[C@]1(c2cc(/C=C(\F)c3ccc(C#N)cn3)ccc2F)N=C(N)S[C@@]2(C(=O)N3CCC4(CCO4)C3)C[C@H]21` (stereo partly drawn) [Example 327, 6-((Z)-2-(3-((1S,5S,6S)-3-amino-5-methyl-1-(1-oxa-6-azaspiro[3.4]octane-6-carbonyl)-2-thia-4-azabicyclo[4.1.0]hept-3-en-5-yl)-4-fluorophenyl)-1-fluorovinyl)nicotinonitrile], the IC50 worked out at 0.0008 µM on BACE1 [1] (setting [3]), 0.0003 µM at BACE1 [2] (setting [4]), 0.028 µM on BACE2 (setting [5]) and 143 µM on Cathepsin D (CatD).

On to `COC[C@H]1COCCN1C(=O)[C@]12C[C@H]1[C@@](C)(c1cc(/C=C(\F)c3ccc(C#N)cn3)ccc1F)N=C(N)S2` [Example 328, 6-((Z)-2-(3-((1S,5S,6S)-3-amino-1-((S)-3-(methoxymethyl)morpholine-4-carbonyl)-5-methyl-2-thia-4-azabicyclo[4.1.0]hept-3-en-5-yl)-4-fluorophenyl)-1-fluorovinyl)nicotinonitrile], for which the half-maximal inhibitory concentration (IC50) came out at 0.0023 µM on BACE1 [1] (setting [3]), 0.0019 µM at BACE1 [2] (setting [4]), 0.085 µM on BACE2 (setting [5]) and 40.3 µM at Cathepsin D (CatD).

As to `C[C@H]1CN(C(=O)[C@]23C[C@H]2[C@@](C)(c2cc(/C=C(\F)c4ccc(C#N)cn4)ccc2F)N=C(N)S3)[C@@H](C)CO1` [Example 329, 6-((Z)-2-(3-((1S,5S,6S)-3-amino-1-((2S,5S)-2,5-dimethylmorpholine-4-carbonyl)-5-methyl-2-thia-4-azabicyclo[4.1.0]hept-3-en-5-yl)-4-fluorophenyl)-1-fluorovinyl)nicotinonitrile], the IC50 on BACE1 [1] (setting [3]) came to 0.0045 µM; on BACE1 [2] (setting [4]), 0.0035 µM; on BACE2 (setting [5]), 0.124 µM; on Cathepsin D (CatD) it was 73.9 µM.

Consider `C[C@@H]1CN(C(=O)[C@]23C[C@H]2[C@@](C)(c2cc(/C=C(\F)c4ccc(C#N)cn4)ccc2F)N=C(N)S3)[C@H](C)CO1` [Example 330, 6-((Z)-2-(3-((1S,5S,6S)-3-amino-1-((2R,5R)-2,5-dimethylmorpholine-4-carbonyl)-5-methyl-2-thia-4-azabicyclo[4.1.0]hept-3-en-5-yl)-4-fluorophenyl)-1-fluorovinyl)nicotinonitrile], for which the IC50 at BACE1 [1] (setting [3]) was 0.0086 µM; at BACE1 [2] (setting [4]), 0.0177 µM; at BACE2 (setting [5]), 0.239 µM; at Cathepsin D (CatD), 138 µM.

With `C[C@]1(c2cc(/C=C(\F)c3ccc(C#N)cn3)ccc2F)N=C(N)S[C@@]2(C(=O)N3CCOCC34CCC4)C[C@H]21` [Example 331, 6-((Z)-2-(3-((1S,5S,6S)-3-amino-5-methyl-1-(8-oxa-5-azaspiro[3.5]nonane-5-carbonyl)-2-thia-4-azabicyclo[4.1.0]hept-3-en-5-yl)-4-fluorophenyl)-1-fluorovinyl)nicotinonitrile], the 50% inhibitory concentration (IC50) on BACE1 [1] (setting [3]) is 0.0013 µM; at BACE1 [2] (setting [4]), 0.0032 µM; on BACE2 (setting [5]), 0.061 µM; on Cathepsin D (CatD), 8.9 µM.

As for `CC1(C)COCCN1C(=O)[C@]12C[C@H]1[C@@](C)(c1cc(/C=C(\F)c3ccc(C#N)cn3)ccc1F)N=C(N)S2` [Example 332, 6-((Z)-2-(3-((1S,5S,6S)-3-amino-1-(3,3-dimethylmorpholine-4-carbonyl)-5-methyl-2-thia-4-azabicyclo[4.1.0]hept-3-en-5-yl)-4-fluorophenyl)-1-fluorovinyl)nicotinonitrile], the IC50 is 0.0023 µM on BACE1 [1] (setting [3]), 0.0026 µM at BACE1 [2] (setting [4]), 0.109 µM at BACE2 (setting [5]) and 117 µM at Cathepsin D (CatD).

As for `CC[C@H]1COCCN1C(=O)[C@]12C[C@H]1[C@@](C)(c1cc(/C=C(\F)c3ccc(C#N)cn3)ccc1F)N=C(N)S2` [Example 334, 6-((Z)-2-(3-((1S,5S,6S)-3-amino-1-((S)-3-ethylmorpholine-4-carbonyl)-5-methyl-2-thia-4-azabicyclo[4.1.0]hept-3-en-5-yl)-4-fluorophenyl)-1-fluorovinyl)nicotinonitrile], the IC50 at BACE1 [1] (setting [3]) is 0.0064 µM; at BACE1 [2] (setting [4]), 0.0041 µM; at BACE2 (setting [5]), 0.146 µM; on Cathepsin D (CatD), 19 µM.

Turning to `C[C@]1(c2cc(/C=C(\F)c3ccc(C#N)cn3)ccc2F)N=C(N)S[C@@]2(C(=O)N3CCOC[C@@H]3CO)C[C@H]21` [Example 335], the IC50 against BACE1 [1] came to 0.0028 µM; on BACE1 [2] it was 0.0026 µM; against BACE2, 0.186 µM; on Cathepsin D (CatD) it was 148 µM.

On to `C[C@H]1[C@H](O)CCN1C(=O)[C@]12C[C@H]1[C@@](C)(c1cc(/C=C(\F)c3ccc(C#N)cn3)ccc1F)N=C(N)S2` [Example 336, 6-((Z)-2-(3-((1S,5S,6S)-3-amino-1-((2S,3R)-3-hydroxy-2-methylpyrrolidine-1-carbonyl)-5-methyl-2-thia-4-azabicyclo[4.1.0]hept-3-en-5-yl)-4-fluorophenyl)-1-fluorovinyl)nicotinonitrile], for which the IC50 turned out to be 0.0013 µM on BACE1 [1] (setting [3]), 0.0005 µM on BACE1 [2] (setting [4]), 0.055 µM at BACE2 (setting [5]) and 151 µM at Cathepsin D (CatD).

On to `C[C@]1(c2cc(/C=C(\F)c3ccc(C#N)cn3)ccc2F)N=C(N)S[C@@]2(C(=O)N3CCCC3c3ccccc3)C[C@H]21` (stereo partly drawn) [Example 337, 6-((Z)-2-(3-((1S,5S,6S)-3-amino-5-methyl-1-(2-phenylpyrrolidine-1-carbonyl)-2-thia-4-azabicyclo[4.1.0]hept-3-en-5-yl)-4-fluorophenyl)-1-fluorovinyl)nicotinonitrile], for which the IC50 at BACE1 [1] (setting [3]) was determined as 0.0044 µM; on BACE1 [2] (setting [4]) it was 0.01 µM; on BACE2 (setting [5]), 0.046 µM; at Cathepsin D (CatD), 2.4 µM.

Consider `C[C@]1(c2cc(/C=C(\F)c3ccc(Br)cn3)ccc2F)N=C(N)S[C@@]2(C(=O)N3CCOCC3)C[C@H]21` [Example 338, ((1S,5S,6S)-3-amino-5-(5-((Z)-2-(5-bromopyridin-2-yl)-2-fluorovinyl)-2-fluorophenyl)-5-methyl-2-thia-4-azabicyclo[4.1.0]hept-3-en-1-yl)(morpholino)methanone], for which the IC50 on BACE1 [1] (setting [3]) turned out to be 0.0011 µM; at BACE1 [2] (setting [4]), 0.0034 µM; on BACE2 (setting [5]), 0.005 µM; on Cathepsin D (CatD) it was 353 µM.

As for `C[C@]1(c2cc(/C=C(\F)c3ccccn3)ccc2F)N=C(N)S[C@@]2(C(=O)N3CCOCC3)C[C@H]21` [Example 339, ((1S,5S,6S)-3-amino-5-(2-fluoro-5-((Z)-2-fluoro-2-(pyridin-2-yl)vinyl)phenyl)-5-methyl-2-thia-4-azabicyclo[4.1.0]hept-3-en-1-yl)(morpholino)methanone], the IC50 on BACE1 [1] (setting [3]) was determined as 0.22 µM; on BACE1 [2] (setting [4]), 0.252 µM; on BACE2 (setting [5]), 0.165 µM; at Cathepsin D (CatD), 520 µM.

As to `C[C@]1(c2cc(/C=C(\F)c3ccc(C4COC4)cn3)ccc2F)N=C(N)S[C@@]2(C(=O)N3CCOCC3)C[C@H]21` [Example 340, ((1S,5S,6S)-3-amino-5-(2-fluoro-5-((Z)-2-fluoro-2-(5-(oxetan-3-yl)pyridin-2-yl)vinyl)phenyl)-5-methyl-2-thia-4-azabicyclo[4.1.0]hept-3-en-1-yl)(morpholino)methanone], the IC50 at BACE1 [1] (setting [3]) was found to be 0.545 µM; on BACE1 [2] (setting [4]), 0.457 µM; at BACE2 (setting [5]) it was 3.21 µM; on Cathepsin D (CatD), 298 µM.

`COC(CNC(=O)[C@]12C[C@H]1[C@@](C)(c1cc(/C=C(\F)c3ccc(C#N)cn3)ccc1F)N=C(N)S2)OC` [Example 341, (1S,5S,6S)-3-amino-5-(5-((Z)-2-(5-cyanopyridin-2-yl)-2-fluorovinyl)-2-fluorophenyl)-N-(2,2-dimethoxyethyl)-5-methyl-2-thia-4-azabicyclo[4.1.0]hept-3-ene-1-carboxamide]: the IC50 at BACE1 [1] (setting [3]) is 0.003 µM; at BACE1 [2] (setting [4]), 0.0011 µM; on BACE2 (setting [5]), 0.024 µM; on Cathepsin D (CatD), 6.8 µM.

With `CC1COC([C@]23C[C@H]2[C@@](C)(c2cc(/C=C(\F)c4ccc(C#N)cn4)ccc2F)N=C(N)S3)=N1` (stereo partly drawn) [Example 342, 6-((Z)-2-(3-((1S,5S,6S)-3-amino-5-methyl-1-(4-methyl-4,5-dihydrooxazol-2-yl)-2-thia-4-azabicyclo[4.1.0]hept-3-en-5-yl)-4-fluorophenyl)-1-fluorovinyl)nicotinonitrile], the half-maximal inhibitory concentration (IC50) at BACE1 [1] (setting [3]) worked out at 0.122 µM; at BACE1 [2] (setting [4]) it was 0.0073 µM; on BACE2 (setting [5]), 0.7 µM; on Cathepsin D (CatD), 400 µM.

As for `C[C@@H]1CN=C([C@]23C[C@H]2[C@@](C)(c2cc(/C=C(\F)c4ccc(C#N)cn4)ccc2F)N=C(N)S3)O1` [Example 343, 6-((Z)-2-(3-((1S,5S,6S)-3-amino-5-methyl-1-((R)-5-methyl-4,5-dihydrooxazol-2-yl)-2-thia-4-azabicyclo[4.1.0]hept-3-en-5-yl)-4-fluorophenyl)-1-fluorovinyl)nicotinonitrile], the IC50 at BACE1 [1] (setting [3]) was found to be 0.0826 µM; on BACE1 [2] (setting [4]) it was 0.0031 µM; at BACE2 (setting [5]) it was 0.692 µM; at Cathepsin D (CatD) it was 884 µM.

As a reminder, the IC50 is the concentration at which inhibition is half-maximal.
